# PMC7397156, “Cytotoxic Phenanthrene, Dihydrophenanthrene, and Dihydrostilbene Derivatives and Other Aromatic Compounds from Combretum laxum” (Molecules, 2020)
# Legend:
# MCF-7 = assay: SRB cytotoxicity assay, MCF-7 breast carcinoma cells; conditions: Homo sapiens, MCF7, read-out: Cytotoxicity IC50, MCF-7
# Protocol: (§2) To this end, a sulforhodamine B (SRB; purity ≥ 97%; Sigma, St. Louis, MO, USA) assay was performed, as described elsewhere [53, 54]. […] IC50 values were calculated from the differences in absorbance readings at 540 nm in untreated (negative control) and treated cells on a SpectraMax 190 microplate reader (Molecular Devices, San Jose, CA, USA) [53] through nonlinear regression analysis, using Origin 6.0 software (OriginLab, Northampton, MA, USA), and growth percentages were calculated as described elsewhere [53]. The data presented are the mean ± standard deviation of at least three independent cell preparations made in triplicate.
# Hep2 = assay: SRB cytotoxicity assay, Hep2 larynx carcinoma cells; format: cell-based; conditions: Homo sapiens, HEp-2, mean ± SD, three independent experiments
# UACC-62 = assay: SRB cytotoxicity assay, UACC-62 melanoma cells; conditions: for IC50: Homo sapiens, UACC-62, read-out: Cytotoxicity IC50, UACC-62
# Protocol: as §2
# NCI/ADR-RES = assay: SRB cytotoxicity assay, NCI/ADR-RES ovary carcinoma cells, multidrug-resistant phenotype; conditions: Homo sapiens, read-out: Cytotoxicity IC50, NCI/ADR-RES
# Protocol: as §2
# 786-0 = assay: SRB cytotoxicity assay, 786-0 kidney carcinoma cells; conditions: Homo sapiens, 786-0, read-out: Cytotoxicity IC50, 786-0
# Protocol: as §2
# [1] = DPPH-radical-scavenging assay; conditions: 30 min, absorbance at 515 nm; mean ± SD, three independent experiments; read-out: Radical-scavenging activity against DPPH, IC50
# Protocol: The radical-scavenging activities of compounds 1–6 were determined using DPPH (a stable free radical), employing the method of microdilution in 96-well microplates described by Zhang et al. and Yamaguchi et al., with some modifications. The assays were performed in triplicate, using caffeic acid as a standard compound and a DPPH solution in EtOH (200 µM) as a negative control. Solutions of samples in EtOH at 200 µM were serially diluted to 100, 50, 25, 12.5, and 6.25 µM. Each solution (100 µL) was mixed with 100 µL of DPPH solution. The samples were allowed to stand at room temperature in the dark for 30 min, after which their absorbances were recorded at 515 nm. The ability of test materials to scavenge DPPH radicals was calculated as follows: DPPH scavenging effect (%) = 100 (Acontrol − Asample)/Acontrol. Radical-scavenging activities were assessed on the basis of their IC50 values determined by linear regression.
# VERO cells = assay: SRB cytotoxicity assay, VERO nonneoplastic cells; format: cell-based, monkey
# From the text: (§1) In addition, 4 inhibited the proliferation of UACC-62 and VERO cells in a dose-dependent manner.
# [2] = SRB cytotoxicity assay, VERO nonneoplastic cells; format: cell-based, monkey; conditions: monkey, VERO (monkey kidney) nonneoplastic cells; at 2.5 µg mL^−1
# From the text: as §1
# [3] = 0.25, 2.5 and 25 µg mL^−1, points above zero in growth curves (Figure 2)
SMILES,IC50 (MCF-7) [µM],IC50 (Hep2) [µM],IC50 (UACC-62) [µM],IC50 (NCI/ADR-RES) [µM],IC50 (786-0) [µM],IC50 [1] [µM],Effect on UACC-62 cell growth (UACC-62; [3]),Concentration from which a cytocidal (cell death) effect is seen on UACC-62 cells (UACC-62; points below zero in growth curves (Figure 2)) [µg/mL],Effect on VERO cell growth (VERO cells; [3]),"IC50 (VERO cells; Primates, Vero, SRB assay, read-out: IC50 on nontumor mammalian VERO cells) [µM]",viability at 2.5 µg mL^−1 [2] [%]
"COc1cc2c(cc1O)-c1c(cc(O)c(OC)c1OC)CC2 [Compound 5, 2,6-Dihydroxy-3,4,7-trimethoxy-9,10-dihydrophenanthrene]",42 ± 9.33,223 ± 2.81,222 ± 3.04,212 ± 14.1,199 ± 6.75,32.9 ± 0.3,,,,,
"COc1cc2c(cc1O)CCc1cc(O)cc(OC)c1-2 [Compound 4, 2,7-dihydroxy-4,6-dimethoxy-9,10-dihydrophenanthrene]",47 ± 5.55,208 ± 17.1,2.59 ± 0.11,58.8 ± 2.33,57 ± 9.29,55.6 ± 0.4,cytostatic (growth inhibition) effect,≥ 2.5,cytostatic (growth inhibition) effect,65.1 ± 4.51,~100
"COc1cc2c(cc1O)-c1c(cc(O)cc1OC)CC2 [Compound 6, 2,6-dihydroxy-4,7-dimethoxy-9,10-dihydrophenanthrene]",160 ± 8.21,547.58 ± 0.11,268 ± 13.8,303 ± 12.6,257 ± 6.51,17.7 ± 0.3,,,,,
"COc1cc2ccc3cc(O)c(OC)c(OC)c3c2cc1O [Compound 3, 2,6-Dihydroxy-3,4,7-trimethoxyphenanthrene]",226 ± 5.09,,247 ± 10.3,117 ± 2.66,64.3 ± 9.62,45.6 ± 0.3,,,,,
"COc1cc2c(ccc3cc(O)cc(OC)c32)cc1O [Compound 2, 2,7-Dihydroxy-4,6-dimethoxyphenanthrene]",118 ± 9.29,> 250,> 250,84 ± 5.4,73.3 ± 7.7,20.4 ± 0.3,,,,,
"COc1cc(CCc2cc(OC)c(OC)c(Oc3cc(OC)c(OC)c(OC)c3)c2)ccc1O [Compound 1, 4′-Hydroxy-3,3′,4-trimethoxy-5-(3,4,5-trimethoxyphenoxy)-bibenzyl]",72.7 ± 4.87,218 ± 2.52,,32.1 ± 4.31,113 ± 2.89,56.5 ± 0.3,,,,,
"O=C(O)/C=C/c1ccc(O)c(O)c1 [Caffeic acid, caffeic acid, reference compound]",,,,,,10.9 ± 0.1,,,,,
